# Data from patent US9763980B2, “Combined chemical modification of sphingosine-1-phosphate (S1P) and CXCR4 signalling pathways for hematopoietic stem cell (HSC) mobilization and engraftment” (Children's Medical Center Corporation, priority 2011, dated 2017).
# “Also recorded” adds a separate entry of the source.
# Assays:
# [1] = test system: CHT hematopoiesis (HSPC markers cmyb and runx1 in the CHT); assay: Zebrafish embryo chemical treatment and dose matrices, whole mount in situ hybridization of cmyb/runx1 in the CHT; assay type: in vivo; details: for cmyb/runx1 expression in the CHT (CHT hematopoiesis): agent alone, treatment from 48 hpf, 72 hpf embryos; for rescue of the effect of 25 μM W146 on cmyb/runx1 expression: addition of agent to W146; for Experimental data: concentration of S1PR1 modulating agent in the combination effective at increasing HSC engraftment / Experimental data: concentration of S1PR1 modulating agent in the combination effective at increasing HSC mobilization: combination with AMD3100; for mobilization of HSC from the bone marrow in vivo: combination with AMD3100 in specific ratios
# Experimental: Transgenic zebrafish embryos were intercrossed and selected using epifluorescence (e.g. Runx1+23:EGFP, cmyb:EGFP^4, cd41:EGFP^2, kdrl:DsRed2^31). Live imaging was performed using a spinning disk confocal microscope with an incubated chamber. Zebrafish embryos were mounted and imaged as previously described. Live mouse fetal liver explants were prepared as previously described for aorta-gonad-mesonephros tissue^10. Image processing was done primarily with Fluorender^32 and ImageJ, which included the MTrackJ plugin^33 for manual cell tracking. For chemical screening and dose matrices, stage-matched AB embryos were dechorionated and arrayed 8-10/well in 96-well mesh-bottomed plates (Millipore). Embryos were treated from 48-72 hpf by placement directly in 96-well receiver plates containing small molecules diluted in E3 media+1% DMSO. Embryos were checked for circulation before fixation. Whole mount in situ hybridization was performed as previously described^34, with the addition of 0.2% glutaraldehyde to 4% formaldehyde at the post-fixation step. […] Lineage tracing was performed by injecting cd41:EGFP positive embryos with caged fluorescein conjugated to dextran (MW 10000). Embryos were uncaged in the DA at 28 hpf with a UV laser. Embryos were raised to 46 hpf in E3 media or E3+S1PR1 antagonist W146 (10 μM), then fixed for antibody staining to detect double positive cd41:EGFP and uncaged FITC HSPCs. Receptor fusion cDNAs (25 pg) were injected into one-cell embryos with Tol2 RNA (15 pg). Flow cytometry was performed using a LSR II and cells were sorted using a FACSAria (BD Biosciences). Flow cytometry data was analyzed using FACSDiva and FlowJo software.
# Having followed newly born aortic HSPCs to the intermediate tissue, the inventors assessed the signaling pathways involved in embryonic migration. The inventors designed a chemical genetic screen to introduce small molecules to the zebrafish embryo from the peak window of HSPC migration to the CHT (48-72 hpf).
# HSPCs in the CHT [2] = assay: Lineage tracing of HSPCs from DA to CHT (cd41:EGFP and uncaged FITC); assay type: in vivo, zebrafish; details: W146 10 μM, versus control
# Experimental: Transgenic zebrafish embryos were intercrossed and selected using epifluorescence (e.g. Runx1+23:EGFP, cmyb:EGFP^4, cd41:EGFP^2, kdrl:DsRed2^31). Live imaging was performed using a spinning disk confocal microscope with an incubated chamber. Zebrafish embryos were mounted and imaged as previously described. Live mouse fetal liver explants were prepared as previously described for aorta-gonad-mesonephros tissue^10. Image processing was done primarily with Fluorender^32 and ImageJ, which included the MTrackJ plugin^33 for manual cell tracking. For chemical screening and dose matrices, stage-matched AB embryos were dechorionated and arrayed 8-10/well in 96-well mesh-bottomed plates (Millipore). Embryos were treated from 48-72 hpf by placement directly in 96-well receiver plates containing small molecules diluted in E3 media+1% DMSO. Embryos were checked for circulation before fixation. Whole mount in situ hybridization was performed as previously described^34, with the addition of 0.2% glutaraldehyde to 4% formaldehyde at the post-fixation step. Morpholino (s1pr1/edg1 ATG-MO^23 obtained from Gene Tools, LLC) was injected into one-cell Tu or cmyb:EGFP; kdrl:DsRed2 transgenic embryos at a 1 ng dose (higher doses stop circulation). […] Flow cytometry data was analyzed using FACSDiva and FlowJo software. […]
# HSPCs in the CHT [3] = assay: Time-lapse live imaging and cell tracking in the CHT (Runx1+23:EGFP; kdrl:DsRed2); assay type: in vivo, zebrafish
# Experimental: Transgenic zebrafish embryos were intercrossed and selected using epifluorescence (e.g. Runx1+23:EGFP, cmyb:EGFP^4, cd41:EGFP^2, kdrl:DsRed2^31). Live imaging was performed using a spinning disk confocal microscope with an incubated chamber. Zebrafish embryos were mounted and imaged as previously described. Live mouse fetal liver explants were prepared as previously described for aorta-gonad-mesonephros tissue^10. Image processing was done primarily with Fluorender^32 and ImageJ, which included the MTrackJ plugin^33 for manual cell tracking. For chemical screening and dose matrices, stage-matched AB embryos were dechorionated and arrayed 8-10/well in 96-well mesh-bottomed plates (Millipore). Embryos were treated from 48-72 hpf by placement directly in 96-well receiver plates containing small molecules diluted in E3 media+1% DMSO. Embryos were checked for circulation before fixation. Whole mount in situ hybridization was performed as previously described^34, with the addition of 0.2% glutaraldehyde to 4% formaldehyde at the post-fixation step. Morpholino (s1pr1/edg1 ATG-MO^23 obtained from Gene Tools, LLC) was injected into one-cell Tu or cmyb:EGFP; kdrl:DsRed2 transgenic embryos at a 1 ng dose (higher doses stop circulation). Lineage tracing was performed by injecting cd41:EGFP positive embryos with caged fluorescein conjugated to dextran (MW 10000). Embryos were uncaged in the DA at 28 hpf with a UV laser. Embryos were raised to 46 hpf in E3 media or E3+S1PR1 antagonist W146 (10 μM), then fixed for antibody staining to detect double positive cd41:EGFP and uncaged FITC HSPCs. Receptor fusion cDNAs (25 pg) were injected into one-cell embryos with Tol2 RNA (15 pg). Flow cytometry was performed using a LSR II and cells were sorted using a FACSAria (BD Biosciences). Flow cytometry data was analyzed using FACSDiva and FlowJo software.
# Time-lapse live imaging. Staged transgenic zebrafish embryos were selected and mounted for imaging in 1% LMP agarose with E3 media and tricaine as described. Pregnant C57/BL6 mice were dissected at E11 (vaginal plug observation was E0). Embryos were removed from the uterus in PBS with 10% FCS and penicillin-streptomycin. Embryos were staged as E11 by counting ˜42 somite pairs. Fetal livers were removed from the embryo and treated as described by Boisset and colleagues (“protocol b”)^10. Zebrafish embryos and fetal liver explants were imaged in MatTek glass bottom dishes (No. 1.5 cover slip). […] Quantification of 12 hours of CHT tracking data per time-lapse movie allowed us to define engrafted cells as stationary (i.e. a speed of <0.31 microns/minute) and resident in the CHT for at least 3 hours, otherwise they were scored as migratory and transient. […]
# autoimmune myocarditis = details: rat model for autoimmune myocarditis; cited from earlier work
# [4] = target: T1, endothelial S1P1 receptors (Mus musculus, UniProt O08530); details: type I diabetic vascular endothelium; cited from earlier work
# T1 construct: host or cells: vascular endothelium (as cited)
# [5] = target: T1, endothelial S1P1 receptors; details: cited from earlier work
# [6] = in vivo; cited from earlier work
# [7] = addition of AUY954, 54 hpf embryos
# [8] = dose matrices, agent combined with AMD3100
# [9] = W146 10 μM, 38-50 hpf, versus control
# T1 sequence (O08530 whole entry): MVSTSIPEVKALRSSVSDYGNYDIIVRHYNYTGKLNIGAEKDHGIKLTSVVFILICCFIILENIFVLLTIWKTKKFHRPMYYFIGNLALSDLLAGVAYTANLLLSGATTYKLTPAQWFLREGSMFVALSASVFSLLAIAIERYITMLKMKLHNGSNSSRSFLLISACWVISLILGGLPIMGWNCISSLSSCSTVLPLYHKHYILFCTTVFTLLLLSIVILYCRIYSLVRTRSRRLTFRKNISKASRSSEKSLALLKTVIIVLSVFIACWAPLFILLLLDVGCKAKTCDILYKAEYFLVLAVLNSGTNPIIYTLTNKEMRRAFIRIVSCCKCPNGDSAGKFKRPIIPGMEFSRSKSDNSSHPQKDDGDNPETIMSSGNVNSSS
smiles,measurement,setting,value
"c1cc(CN2CCCNCCNCCCNCC2)ccc1CN1CCCNCCNCCCNCC1 [AMD3100, 1,1′-[1,4-Phenylenebis(methylene)]bis[1,4,8,11-tetraazacyclotetradecane]]",cmyb/runx1 expression in the CHT,"[1]; AMD3100 25 μM, 54 hpf embryos",greatly decreases
same,cmyb/runx1 expression in the CHT (CHT hematopoiesis),[1],dose-dependently reduces; also recorded: decreases CHT hematopoiesis
same,CHT hematopoiesis,[1]; each agent alone at the doses of the effective FTY720/AMD3100 combination,no effect
"O=C(O)CCNCc1ccc2sc(-c3ccc(-c4ccccc4)c(C(F)(F)F)c3)cc2c1 [AUY954, 3-[[2-[4-phenyl-3-(trifluoromethyl)phenyl]-1-benzothiophen-5-yl]methylamino]propanoic acid]",CHT score (greatest engraftment in dose matrix),[1]; 10 μM AMD3100 and 12.5 μM AUY945,+2
same,rescue of the cmyb/runx1 decrease caused by 25 μM AMD3100,[1]; [7],partially rescued
same,rescue of the effect of 25 μM SKI-2,[1]; [7],rescued
same,rescue of the effect of 25 μM W146 on cmyb/runx1 expression,[1]; 54 hpf embryos,rescued
same,Experimental data: concentration of S1PR1 modulating agent in the combination effective at increasing HSC engraftment,[1],12.5 µM
same,CHT hematopoiesis,[1]; [8],synergistic increases
"CCCCCCc1cccc(NC(=O)[C@H](N)CCP(=O)(O)O)c1 [Compound W146, (R)-3-Amino-4-(3-hexylphenylamino)-4-oxobutylphosphonic acid]",CHT score in dose matrix,[1]; 5 μM AMD3100 and 10 μM W146,greatest CHT score
same,cmyb/runx1 expression in the CHT,"[1]; W146 25 μM, 54 hpf embryos",decreases
same,Experimental data: concentration of S1PR1 modulating agent in the combination effective at increasing HSC engraftment,[1],10 µM
same,Experimental data: concentration of S1PR1 modulating agent in the combination effective at increasing HSC mobilization,[1],5 μM W146
same,mobilization of HSC from the bone marrow in vivo,[1],improves mobilization
same,number of lineage traced HSPCs in the CHT,HSPCs in the CHT [2]; embryos raised to 46 hpf,increased
same,morphology of lineage traced HSPCs in the CHT,HSPCs in the CHT [2],morphology that differed from the control; also recorded: morphological changes
same,number of engrafted cells,HSPCs in the CHT [3]; [9],decreased
same,percentage of migratory cells,HSPCs in the CHT [3]; [9],increased
same,tracked cells in the CHT,HSPCs in the CHT [3]; [9],increased
same,CHT colonization,HSPCs in the CHT [3]; embryos in the antagonist during imaging,interferes with CHT colonization
NC(CO)(CO)CCc1ccc(Sc2cccc(OCc3ccccc3)c2)cc1Cl [KRP-203],therapeutic efficacy,autoimmune myocarditis,therapeutic efficacy
"FC(F)(F)c1cccc(-c2noc(-c3cc(-c4ccccc4)c(C(F)(F)F)s3)n2)c1 [SEW2871, 5-[4-phenyl-5-(trifluoromethyl)-2-thienyl]-3-[3-(trifluoromethyl)phenyl]-1,2,4-oxadiazole]",CHT score (greatest engraftment in dose matrix),[1]; 10 μM AMD3100 and 10 μM SEW2871,+2
same,Experimental data: concentration of S1PR1 modulating agent in the combination effective at increasing HSC engraftment,[1],10 µM
same,Experimental data: concentration of S1PR1 modulating agent in the combination effective at increasing HSC mobilization,[1],15 µM
same,mobilization of HSC from the bone marrow in vivo,[1],improves mobilization
same,CHT hematopoiesis,[1]; [8],synergistic increases
same,proinflammatory monocyte/endothelial interactions,[4],prevents
same,protection of the vasculature against TNFα-mediated monocyte/endothelial interactions,[5],protects
same,bradycardia,[6],does not induce bradycardia
"CCCCCCCCCCCCC/C=C/[C@@H](O)[C@@H](N)COP(=O)(O)O [Compound S1P, sphingosine-1-phosphate]",rescue of the effect of 25 μM W146 on cmyb/runx1 expression,[1]; 54 hpf embryos,rescued
same,cmyb/runx1 expression in the CHT (CHT hematopoiesis),[1],altered the migration pattern of HSPCs; also recorded: alters cmyb/runx1 expression pattern
same,CHT hematopoiesis,[1]; [8],synergistic increases
Oc1ccc(Nc2nc(-c3ccc(Cl)cc3)cs2)cc1 [SKI-2],effect of SKI-2 in CHT hematopoiesis assay,"[1]; SKI-2 25 μM, 54 hpf embryos",depleting endogenous levels of S1P
same,effect on improving engraftment (CHT),[1]; SKI-2 alone,little effect
